From patent US20260034112A1, “MULTI-CYCLIC IRAK1 AND IRAK4 INHIBITING COMPOUNDS AND USES THEREOF” (CHILDREN'S HOSPITAL MEDICAL CENTER, priority 2022, published 2026)
Values after ≈ are worked out from the molar mass of the structure shown. Values joined by “and” are separate entries in the source; they are usually repeats but may differ in a detail not shown here. Equal entries are not always repeated. Where two headings read alike, the source gives them in different places.

Experiments:
[1] = Survival in xenograft mice versus emavusertib and gilteritinib (FIG. 28); conditions: compared to emavusertib (CA-4948) and gilteritinib
IRAK4 [2] = target: T1, IRAK4 (Homo sapiens, UniProt Q9NWZ3); assay: Reaction Biology Kinase Assay service, kinase inhibition (IC50); assay type: biochemical
T1 construct: purchased Reaction Biology (contract assay service)
T1 sequence (Q9NWZ3 1-460): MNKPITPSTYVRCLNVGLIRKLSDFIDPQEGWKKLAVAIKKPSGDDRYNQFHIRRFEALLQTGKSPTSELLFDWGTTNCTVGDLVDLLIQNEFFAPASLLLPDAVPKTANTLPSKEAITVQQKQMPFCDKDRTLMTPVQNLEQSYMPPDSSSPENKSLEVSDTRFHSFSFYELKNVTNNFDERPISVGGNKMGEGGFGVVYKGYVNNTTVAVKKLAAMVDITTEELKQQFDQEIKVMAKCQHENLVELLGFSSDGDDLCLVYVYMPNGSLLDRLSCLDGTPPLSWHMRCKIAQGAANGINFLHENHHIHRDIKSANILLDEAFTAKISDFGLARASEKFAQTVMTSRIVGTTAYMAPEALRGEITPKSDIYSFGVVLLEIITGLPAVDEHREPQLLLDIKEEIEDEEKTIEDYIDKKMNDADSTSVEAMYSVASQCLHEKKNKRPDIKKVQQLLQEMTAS

IRAK1 [3] = target: T2, IRAK1 (Homo sapiens, UniProt P51617); assay: as above; assay type: biochemical; conditions: for IRAK4:IRAK1 potency ratio: calculated from the IRAK1 and IRAK4 IC50
T2 construct: purchased Reaction Biology (contract assay service)

[4] = system: NF-kB activity upon TLR2 stimulation with PAM3CSK4 in THP1-Blue NF-kB SEAP reporter cells; assay: THP1-Blue NF-kB SEAP reporter assay, TLR2 stimulation with PAM3CSK4; assay type: cell-based, human; conditions: for Suppression of TLR2-mediated activation of NF-kB: THP1 cells
[5] = system: NF-kB activity upon IL-1β stimulation (IL-1R) in THP1 NF-kB reporter cells; assay: THP1 NF-kB reporter assay, IL-1β stimulation; assay type: cell-based, human; conditions: for Suppression of NF-kB signaling through the IL-1 receptor: result in words
[6] = Microsomal stability (Mic t½), rat; assay type: in vitro ADME
THP1 cells = assay type: cell-based, human; conditions: AML cells versus vehicle
[7] = Microsomal stability (Mic t½), mouse; assay type: in vitro ADME
[8] = Plasma protein binding, human; assay type: in vitro ADME
[9] = Pharmacokinetic analysis, drug concentration after PO dosing
[10] = Plasma protein binding, mouse; assay type: in vitro ADME
PAMPA = assay type: in vitro ADME
AML(1714) cells = assay: Xenograft of AML(1714) cells pre-treated in vitro for 21 days; assay type: in vivo; conditions: AML(1714) pre-treated 500 nM 21 days, xenografted NSGS mice
[11] = system: MDS/AML cell lines and patient-derived samples; assay: Clonogenic assay (colony formation in methylcellulose); assay type: cell-based, human; conditions: for Colony formation after in vitro exposure: AML(1714) cells, 500 nM for 21 days, then 250 live cells plated, 10 days
[12] = system: IRAK1 phosphorylation in MDS/AML cells; assay: Immunoblotting for phospho-IRAK1; assay type: cell-based, human; conditions: THP1 and MDSL cells, 500 nM, 24 hours
[13] = system: AML(64519), AML(0169), and MDS(76960) cells; assay: Patient-derived AML/MDS xenografts treated orally; assay type: in vivo, NSGS mice; conditions: PO daily, Compound 14 30 mg/kg or Compound 15 100 mg/kg; for Median survival: NSGS mice engrafted with AML(0169), vehicle 29 days; for Leukemic cell engraftment in the PB: AML(64519), AML(0169), MDS(76960) at day 40, 29, 48, versus vehicle
IRAK1 [14] = target: T2, IRAK1; assay: DiscoverX KINOMEscan Profiling Service, dissociation constant; assay type: binding
IRAK4 [15] = target: T1, IRAK4; assay: as above; assay type: binding
Solubility = assay type: physicochemical
[16] = Microsomal stability (Mic t½), human; assay type: in vitro ADME
[17] = system: healthy donor CD34+ cells; assay: Myeloid and erythroid colony formation of healthy donor cells; assay type: cell-based, human; conditions: same concentrations as in the leukemic colony assay
[18] = system: MDSL, THP1, OCIAML3, AML(1714), and AML(1294) cells; assay: Annexin V staining (apoptosis); assay type: cell-based, human; conditions: 500 nM, 48 hours
[19] = system: MDS/AML cell lines and patient-derived samples; assay: Differentiation: Wright-Giemsa stains and CD38 immunophenotyping; assay type: cell-based, human
[20] = functional biochemical assay, read-out: IRAK4 IC50
[21] = functional biochemical assay, read-out: IRAK1 IC50
[22] = THP1 NF-kB reporter cells, read-out: IC50 vs. IL-1β (NF-kB activation)

T2 sequence (P51617 whole entry): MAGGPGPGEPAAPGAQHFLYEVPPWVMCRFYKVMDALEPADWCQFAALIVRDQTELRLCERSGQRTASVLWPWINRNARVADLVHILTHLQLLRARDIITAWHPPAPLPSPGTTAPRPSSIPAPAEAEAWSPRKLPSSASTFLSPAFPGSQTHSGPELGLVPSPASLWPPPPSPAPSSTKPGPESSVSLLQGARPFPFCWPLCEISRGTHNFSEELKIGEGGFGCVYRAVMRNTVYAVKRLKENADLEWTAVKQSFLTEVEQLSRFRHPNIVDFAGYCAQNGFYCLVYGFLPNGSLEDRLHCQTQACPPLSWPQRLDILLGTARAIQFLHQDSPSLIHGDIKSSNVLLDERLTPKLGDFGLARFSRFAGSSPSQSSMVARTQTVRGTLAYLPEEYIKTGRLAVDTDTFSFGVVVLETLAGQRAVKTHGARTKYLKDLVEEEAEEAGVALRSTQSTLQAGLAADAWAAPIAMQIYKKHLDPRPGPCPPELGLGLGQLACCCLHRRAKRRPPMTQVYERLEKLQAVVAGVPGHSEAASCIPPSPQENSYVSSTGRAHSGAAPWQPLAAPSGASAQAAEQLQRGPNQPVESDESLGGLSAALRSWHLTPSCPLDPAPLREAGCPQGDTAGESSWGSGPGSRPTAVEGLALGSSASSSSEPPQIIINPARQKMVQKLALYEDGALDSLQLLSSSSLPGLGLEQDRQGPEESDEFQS

SMILES: COc1cc2ncc(-c3nc(N[C@@H]4CCCNC4)c(F)cc3F)n2nc1C1CC1 [Compound 8]
- Survival in xenograft mice [1]: enhanced survival
- LOG (IRAK4) (IRAK4 [2]; Table 1, log of IRAK4 IC50): 0.19
- IC50 (IRAK4 [2]; Table 1, unit nM, read-out: Reaction Bio IRAK4 IC50): 1.54 nM
- LOG (IRAK1) (IRAK1 [3]; Table 1, log of IRAK1 IC50): 1.43
- IC50 (IRAK1 [3]; Table 1, unit nM, read-out: Reaction Bio IRAK1 IC50): 27.2 nM
- IC50 ([4]; Homo sapiens, THP-1, Table 1, unit nM, read-out: THP-1 NFkB PAM IC50): 62.9 nM
- LOG (PAM) ([4]; Table 1, log of PAM IC50): 1.80
- IC50 ([5]; Homo sapiens, THP-1, Table 1, unit nM, read-out: THP-1 NFkB IL1B IC50): 58.7 nM
- LOG (IL1B) ([5]; Table 1, log of IL1B IC50): 1.77

SMILES: COc1ccc2ncc(-c3cccc(N[C@@H]4CCCNC4)n3)n2c1 [Compound 14]
- Tier 1 Mic t½ (r) [6]: >30 min
- Effect on genes of the IRAK1/4 AML signature (THP1 cells): unremarkable effect
- IC50 (IRAK4 [2]; [20]): 5 nM
- Tier 2 Mic t½ (m) [7]: N.D./25/N.D. min
- Plasma Prot Bind (% free - h) [8]: 26.5 % free
- Mean Free Drug Concentration ([9]; PO 30 mg/kg, 0.25 h): 336 nM
- Mean Total Drug Concentration ([9]; PO 30 mg/kg, 0.25 h): 869 nM
- Mean Free Drug Concentration ([9]; PO 30 mg/kg, 0.5 h): 360 nM
- Mean Total Drug Concentration ([9]; PO 30 mg/kg, 0.5 h): 932 nM
- Mean Free Drug Concentration ([9]; PO 30 mg/kg, 1 h): 309 nM
- Mean Total Drug Concentration ([9]; PO 30 mg/kg, 1 h): 801 nM
- Mean Free Drug Concentration ([9]; PO 30 mg/kg, 2 h): 217 nM
- Mean Total Drug Concentration ([9]; PO 30 mg/kg, 2 h): 562 nM
- Mean Free Drug Concentration ([9]; PO 30 mg/kg, 4 h): 101 nM
- Mean Total Drug Concentration ([9]; PO 30 mg/kg, 4 h): 262 nM
- Mean Free Drug Concentration ([9]; PO 30 mg/kg, 8 h): 30 nM
- Mean Total Drug Concentration ([9]; PO 30 mg/kg, 8 h): 78 nM
- Mean Free Drug Concentration ([9]; PO 30 mg/kg, 24 h): 0 nM
- Mean Total Drug Concentration ([9]; PO 30 mg/kg, 24 h): 0 nM
- Plasma Prot Bind (% free - ms) [10]: 38.6 % free
- PAMPA (PAMPA): 746 10^−6 cm/s
- Leukemic engraftment and AML development of pre-treated cells (AML(1714) cells): only partially suppressed
- Colony formation after in vitro exposure [11]: only partially suppressed
- Reduction in leukemia progenitor cell colony formation ([11]; MDS/AML cell lines, 250 nM or 1 μM): 60-75%
- Reduction in leukemia progenitor cell colony formation ([11]; all MDS/AML cell lines and patient-derived samples, 250 nM or 1 μM): approximately 75%
- Reduction in leukemia progenitor cell colony formation ([11]; patient-derived AML samples, 250 nM or 1 μM): 80-85%
- IRAK4:IRAK1 potency ratio (IRAK1 [3]): 100
- IC50 (IRAK1 [3]; [21]): > 500 nM
- Phosphorylation of IRAK1 [12]: did not affect phosphorylation of IRAK1
- Suppression of TLR2-mediated activation of NF-kB ([4]; at 5 μM): ~80%
- Median survival [13]: 33 days
- Leukemic cell engraftment in the PB [13]: did not significantly suppress
- Kd (IRAK1 [14]): 150 nM
- Kd (IRAK4 [15]): 5 nM
- IC50 [5, 22]: 227 nM
- Suppression of NF-kB signaling through the IL-1 receptor ([5]; THP1 NF-kB reporter cells): completely suppress
- Solubility (Solubility): >48 mg/mL

SMILES: CC1(c2ccc3ncc(-c4cccc(N[C@@H]5CCNC5)n4)n3c2)CC1 [Compound 15]
- Tier 1 Mic t½ (r) [6]: >30 min
- Tier 2 Mic t½ (r) [6]: 68 min
- Genes of the IRAK1/4 AML signature suppressed (THP1 cells): ~65%
- IC50 (IRAK4 [2]; [20]): 0.9 nM
- Tier 2 Mic t½ (m) [7]: 29 min
- Plasma Prot Bind (% free - h) [8]: 2.46 % free
- Mean Free Drug Concentration ([9]; PO 100 mg/kg, 0.25 h): 263 nM
- Mean Total Drug Concentration ([9]; PO 100 mg/kg, 0.25 h): 3845 nM
- Mean Free Drug Concentration ([9]; PO 100 mg/kg, 0.5 h): 258 nM
- Mean Total Drug Concentration ([9]; PO 100 mg/kg, 0.5 h): 3764 nM
- Mean Free Drug Concentration ([9]; PO 100 mg/kg, 1 h): 207 nM
- Mean Total Drug Concentration ([9]; PO 100 mg/kg, 1 h): 3018 nM
- Mean Free Drug Concentration ([9]; PO 100 mg/kg, 2 h): 139 nM
- Mean Total Drug Concentration ([9]; PO 100 mg/kg, 2 h): 2034 nM
- Mean Free Drug Concentration ([9]; PO 100 mg/kg, 4 h): 109 nM
- Mean Total Drug Concentration ([9]; PO 100 mg/kg, 4 h): 1594 nM
- Mean Free Drug Concentration ([9]; PO 100 mg/kg, 8 h): 50 nM
- Mean Total Drug Concentration ([9]; PO 100 mg/kg, 8 h): 726 nM
- Mean Free Drug Concentration ([9]; PO 100 mg/kg, 24 h): 1 nM
- Mean Total Drug Concentration ([9]; PO 100 mg/kg, 24 h): 9 nM
- Plasma Prot Bind (% free - ms) [10]: 6.85 % free
- Tier 2 Mic t½ (h) [16]: 1.7 h
- PAMPA (PAMPA): 495 10^−6 cm/s
- Leukemic engraftment and AML development of pre-treated cells (AML(1714) cells): complete loss of leukemic engraftment and AML development
- Erythroid colony formation of healthy donor CD34+ cells [17]: increased erythroid colony formation
- Myeloid cell colonies of healthy donor CD34+ cells [17]: only modesty inhibited
- Colony formation after in vitro exposure [11]: significantly diminished colony formation
- Suppression of leukemia progenitor cell colony formation ([11]; MDS/AML cell lines and patient-derived samples, 250 nM or 1 μM, complete in all samples except THP1): complete suppression of leukemia progenitor cell colony formation
- IRAK4:IRAK1 potency ratio (IRAK1 [3]): 36
- IC50 (IRAK1 [3]; [21]): 32 nM
- Phosphorylation of IRAK1 [12]: inhibited auto-phosphorylation of IRAK1
- IC50 ([4]; THP1 NF-kB reporter cells, read-out: IC50 vs. Pam3CSK4 (TLR2-mediated NF-kB activation)): 6.3 nM and 4.5 nM
- Suppression of TLR2-mediated activation of NF-kB ([4]; at 100 nM): completely suppressed
- Median survival [13]: 40 days
- Leukemic cell engraftment in the PB [13]: significantly reduced
- Kd (IRAK1 [14]): 2.2 nM
- Kd (IRAK4 [15]): 0.2 nM
- Apoptosis (Annexin V staining) [18]: more effective than Compound 14 at mediating apoptosis
- Morphology (Wright-Giemsa staining) ([19]; 500 nM, 12 days): heterogeneous morphologies and size and increased cytoplasmic to nuclear ratios
- Expression of CD38 ([19]; 12 days of treatment, versus Compound 14 or vehicle): greater expression of CD38
- IC50 [5, 22]: 9.3 nM
- Suppression of NF-kB signaling through the IL-1 receptor ([5]; THP1 NF-kB reporter cells): completely suppress
- Solubility (Solubility): 31 mg/mL (≈ 93 mM)
